The record followed here is ChEMBL document CHEMBL4368860, “Structure activity relationship of 2-arylalkynyl-adenine derivatives as human A3 adenosine receptor antagonists” (Medchemcomm, 2018).

For orientation: pKi means the Ki on a negative log10 scale, so that one unit is a factor of ten. The term pEC50 denotes −log10 of the EC50, conventionally taken in molar units. For orientation: inhibition means the percentage by which the read-out fell short of the control.

Data set [1] has as its target T1, Adenosine receptor A2a (Homo sapiens, UniProt P29274). Put plainly: Displacement of [3H]ZM241385 from human A2A receptor expressed in HEK293 cell membranes. A general note: Displacement assays read how much labelled ligand stays bound in the presence of the test substance.
Data set [2] is described as follows: Displacement of [3H]DPCPX from pig A1 receptor. Also on record: species or system Sus scrofa.
The next data set deals with T2, Adenosine receptor A1 (Homo sapiens, UniProt P30542).
T2 sequence (P30542 whole entry): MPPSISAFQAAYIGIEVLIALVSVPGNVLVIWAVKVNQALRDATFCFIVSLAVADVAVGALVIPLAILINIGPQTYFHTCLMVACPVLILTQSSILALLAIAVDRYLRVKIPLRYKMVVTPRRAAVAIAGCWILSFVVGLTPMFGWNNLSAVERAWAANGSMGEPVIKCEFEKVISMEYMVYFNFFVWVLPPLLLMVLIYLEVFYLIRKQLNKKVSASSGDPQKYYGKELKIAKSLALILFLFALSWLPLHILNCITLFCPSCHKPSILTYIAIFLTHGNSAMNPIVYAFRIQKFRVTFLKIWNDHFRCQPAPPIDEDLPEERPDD
Description: Displacement of [3H]DPCPX from recombinant human A1 receptor expressed in CHO cell membranes.

The target in data set [3] is Alpha-2C adrenergic receptor (Homo sapiens, UniProt P18825). Put plainly: Displacement of [3H]Rauwolscine from human alpha 2C adrenergic receptor expressed in MDCK cells by radioligand binding assay. The format is cell-based.
Chain of Alpha-2C adrenergic receptor (P18825 whole entry): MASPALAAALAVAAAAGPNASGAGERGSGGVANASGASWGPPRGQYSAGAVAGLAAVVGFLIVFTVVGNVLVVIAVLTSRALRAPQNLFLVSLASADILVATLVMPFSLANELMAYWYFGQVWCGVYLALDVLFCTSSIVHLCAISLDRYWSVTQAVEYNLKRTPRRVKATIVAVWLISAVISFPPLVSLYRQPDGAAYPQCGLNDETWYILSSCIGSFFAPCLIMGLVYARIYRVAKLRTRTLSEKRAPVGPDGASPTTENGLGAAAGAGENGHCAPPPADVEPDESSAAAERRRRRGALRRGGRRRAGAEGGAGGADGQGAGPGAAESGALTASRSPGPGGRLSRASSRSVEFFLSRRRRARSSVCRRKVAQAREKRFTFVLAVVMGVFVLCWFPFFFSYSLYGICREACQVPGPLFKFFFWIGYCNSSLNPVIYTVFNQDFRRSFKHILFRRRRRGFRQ
The target in data set [4] is T3, Adenosine receptor A3 (Homo sapiens, UniProt P0DMS8).
T3 sequence (P0DMS8 whole entry): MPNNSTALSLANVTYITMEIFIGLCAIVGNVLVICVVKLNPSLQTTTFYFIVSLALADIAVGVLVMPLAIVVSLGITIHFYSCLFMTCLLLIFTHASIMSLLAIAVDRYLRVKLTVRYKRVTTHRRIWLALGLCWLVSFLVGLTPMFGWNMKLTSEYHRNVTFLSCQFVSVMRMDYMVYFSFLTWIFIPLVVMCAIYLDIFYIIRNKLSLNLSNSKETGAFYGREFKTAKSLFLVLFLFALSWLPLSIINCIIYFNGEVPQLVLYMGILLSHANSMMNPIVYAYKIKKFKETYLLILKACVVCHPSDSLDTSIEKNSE
Description: Antagonist activity at human A3AR expressed in CHO cells assessed as suppression of NECA-induced reduction in cAMP accumulation. The format is functional, cell-based.

The target in data set [5] is T3, Adenosine receptor A3. Put plainly: Displacement of [125I]I-AB-MECA from recombinant human adenosine A3 receptor expressed in CHO cell membranes.
Data set [6] addresses T4, Adenosine receptor A1 (Homo sapiens) (UniProt P30542).
T4 sequence (whole entry): T2 sequence (P30542 whole entry)
Put plainly: Displacement of [3H]DPCPX from recombinant human A1 receptor expressed in CHO cell membranes at 10 uM.

Another data set concerns the target D(1A) dopamine receptor (Homo sapiens, UniProt P21728). Description: Displacement of [3H]SCH23390 from human dopamine D1 receptor expressed in HEK293T cell membranes by radioligand binding assay.
Data set [7] has as its target T1, Adenosine receptor A2a. Description: Displacement of [3H]ZM241385 from human A2A receptor expressed in HEK293 cell membranes at 10 uM. The following applies: HEK293 cell membranes expressing human A2A receptor, probe [3H]ZM241385.
In data set [8] the target is Sigma non-opioid intracellular receptor 1 (Cavia porcellus, UniProt Q60492). Description: Displacement of [3H]-(+)-pentazocine from sigma-1 receptor in guinea pig by radioligand binding assay.
Chain of Sigma non-opioid intracellular receptor 1 (Q60492 whole entry): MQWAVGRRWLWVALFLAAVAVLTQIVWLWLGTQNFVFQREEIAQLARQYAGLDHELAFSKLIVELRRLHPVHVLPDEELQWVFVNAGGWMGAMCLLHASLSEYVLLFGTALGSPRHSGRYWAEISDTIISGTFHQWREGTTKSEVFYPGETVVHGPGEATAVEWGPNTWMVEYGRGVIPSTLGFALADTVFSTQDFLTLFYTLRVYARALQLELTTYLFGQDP
Data set [9] addresses Adenosine receptor A3 (Mus musculus, UniProt Q61618). Description: Displacement of [125I]I-AB-MECA from recombinant mouse adenosine A3 receptor expressed in HEK293 cell membranes.
For the next data set, the species on record is Homo sapiens. Put plainly: Selectivity ratio of Ki for displacement of [125I]I-AB-MECA from recombinant mouse adenosine A3 receptor expressed in HEK293 cell membranes to Ki for displacement of [125I]I-AB-MECA from recombinant human adenosine A3 receptor.
In data set [10] the target is Sodium-dependent noradrenaline transporter (Homo sapiens, UniProt P23975). Description: Displacement of [3H]Nisoxetine from human NET expressed in HEK cells by radioligand binding assay. The format is cell-based.
Chain of Sodium-dependent noradrenaline transporter (P23975 whole entry): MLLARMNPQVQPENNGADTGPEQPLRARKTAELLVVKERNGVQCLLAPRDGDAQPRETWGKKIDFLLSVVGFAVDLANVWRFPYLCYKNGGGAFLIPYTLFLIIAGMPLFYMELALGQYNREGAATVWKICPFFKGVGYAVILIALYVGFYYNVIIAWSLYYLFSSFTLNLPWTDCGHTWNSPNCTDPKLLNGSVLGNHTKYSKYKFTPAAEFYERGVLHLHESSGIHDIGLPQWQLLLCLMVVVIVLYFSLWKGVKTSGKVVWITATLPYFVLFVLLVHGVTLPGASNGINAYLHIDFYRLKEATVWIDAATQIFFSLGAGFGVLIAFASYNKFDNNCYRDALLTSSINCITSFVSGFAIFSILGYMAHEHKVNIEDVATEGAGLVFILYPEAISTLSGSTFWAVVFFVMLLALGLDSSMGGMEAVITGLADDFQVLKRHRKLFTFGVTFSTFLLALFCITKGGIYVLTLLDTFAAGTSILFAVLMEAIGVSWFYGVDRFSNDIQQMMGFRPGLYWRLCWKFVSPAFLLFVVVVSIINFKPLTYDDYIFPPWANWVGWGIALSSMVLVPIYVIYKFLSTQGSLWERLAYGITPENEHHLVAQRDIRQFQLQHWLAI
Data set [11] has as its target Adenosine receptor A1 (Mus musculus) (UniProt Q60612). Description: Displacement of [3H]DPCPX from mouse A1 receptor at 10 uM.
In data set [12] the target is Adenosine receptor A2a (Mus musculus, UniProt Q60613). Description: Displacement of [3H]ZM241385 from mouse A2A receptor at 10 uM. As to conditions: probe [3H]ZM241385.
Chain of Adenosine receptor A2a (Mus musculus, UniProt Q60613) (Q60613 whole entry): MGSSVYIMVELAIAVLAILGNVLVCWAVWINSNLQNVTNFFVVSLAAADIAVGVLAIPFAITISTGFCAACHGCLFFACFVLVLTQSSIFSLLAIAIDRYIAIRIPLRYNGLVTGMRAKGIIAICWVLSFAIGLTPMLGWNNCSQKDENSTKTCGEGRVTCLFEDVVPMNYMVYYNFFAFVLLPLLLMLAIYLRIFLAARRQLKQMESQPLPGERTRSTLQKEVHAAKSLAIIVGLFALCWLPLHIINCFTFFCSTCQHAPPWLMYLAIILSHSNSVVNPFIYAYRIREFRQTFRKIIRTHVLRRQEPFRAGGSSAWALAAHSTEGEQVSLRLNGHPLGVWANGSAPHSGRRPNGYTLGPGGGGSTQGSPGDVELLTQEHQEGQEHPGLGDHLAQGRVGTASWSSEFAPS
Data set [13] concerns the target Sigma intracellular receptor 2 (Homo sapiens, UniProt Q5BJF2). Description: Displacement of [3H]-DTG from human sigma 2 receptor.

pEC50, pKi: −log10 of the molar value.

T1 sequence (P29274 whole entry): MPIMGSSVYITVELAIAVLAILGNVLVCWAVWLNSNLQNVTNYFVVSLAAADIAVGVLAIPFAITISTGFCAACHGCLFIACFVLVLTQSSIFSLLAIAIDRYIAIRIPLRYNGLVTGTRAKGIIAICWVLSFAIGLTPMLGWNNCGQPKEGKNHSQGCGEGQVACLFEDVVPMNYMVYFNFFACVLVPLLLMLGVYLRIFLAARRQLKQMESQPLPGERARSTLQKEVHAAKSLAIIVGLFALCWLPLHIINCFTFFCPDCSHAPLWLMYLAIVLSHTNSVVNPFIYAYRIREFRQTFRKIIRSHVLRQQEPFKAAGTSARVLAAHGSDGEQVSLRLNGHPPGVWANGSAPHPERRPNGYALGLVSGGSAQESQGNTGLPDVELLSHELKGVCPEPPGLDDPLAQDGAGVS
Chain of Adenosine receptor A3 (Mus musculus, UniProt Q61618) (Q61618 whole entry): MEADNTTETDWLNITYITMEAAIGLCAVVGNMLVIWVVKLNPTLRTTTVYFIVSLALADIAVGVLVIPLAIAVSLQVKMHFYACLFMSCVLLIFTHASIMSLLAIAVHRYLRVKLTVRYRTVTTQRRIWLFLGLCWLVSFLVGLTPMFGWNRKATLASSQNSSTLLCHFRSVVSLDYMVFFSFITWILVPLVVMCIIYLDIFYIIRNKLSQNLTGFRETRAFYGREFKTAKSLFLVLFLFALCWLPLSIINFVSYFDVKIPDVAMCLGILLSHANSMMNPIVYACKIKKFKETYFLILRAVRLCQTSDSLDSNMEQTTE
Chain of Sigma intracellular receptor 2 (Q5BJF2 whole entry): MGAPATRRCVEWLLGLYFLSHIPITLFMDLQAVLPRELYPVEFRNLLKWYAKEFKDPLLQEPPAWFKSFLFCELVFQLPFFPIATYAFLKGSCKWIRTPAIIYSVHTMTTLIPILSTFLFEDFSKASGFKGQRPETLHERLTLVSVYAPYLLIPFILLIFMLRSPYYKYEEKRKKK
Chain of Adenosine receptor A1 (Mus musculus) (Q60612 whole entry): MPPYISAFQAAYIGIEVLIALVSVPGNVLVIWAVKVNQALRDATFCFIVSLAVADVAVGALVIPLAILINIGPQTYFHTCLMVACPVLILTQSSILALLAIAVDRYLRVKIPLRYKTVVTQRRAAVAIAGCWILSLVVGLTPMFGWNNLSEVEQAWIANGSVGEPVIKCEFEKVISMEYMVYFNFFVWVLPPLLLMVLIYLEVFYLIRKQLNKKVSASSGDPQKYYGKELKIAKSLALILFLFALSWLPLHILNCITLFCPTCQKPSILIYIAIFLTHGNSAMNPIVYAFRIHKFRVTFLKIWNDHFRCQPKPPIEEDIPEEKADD
Chain of D(1A) dopamine receptor (P21728 whole entry): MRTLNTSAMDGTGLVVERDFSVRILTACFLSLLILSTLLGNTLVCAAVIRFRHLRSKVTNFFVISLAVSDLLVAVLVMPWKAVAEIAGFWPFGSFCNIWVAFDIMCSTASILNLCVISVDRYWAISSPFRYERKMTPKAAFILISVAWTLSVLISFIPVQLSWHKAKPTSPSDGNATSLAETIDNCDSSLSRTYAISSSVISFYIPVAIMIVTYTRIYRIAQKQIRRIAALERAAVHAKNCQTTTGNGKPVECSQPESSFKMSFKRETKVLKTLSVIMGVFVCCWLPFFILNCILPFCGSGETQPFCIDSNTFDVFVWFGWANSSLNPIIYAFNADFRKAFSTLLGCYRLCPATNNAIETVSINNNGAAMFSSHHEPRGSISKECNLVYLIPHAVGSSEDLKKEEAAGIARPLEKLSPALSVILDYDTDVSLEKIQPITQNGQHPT

In the case of `OC[C@H]1O[C@@H](n2cnc3c(N[C@@H]4CCOC4)ncnc32)[C@H](O)[C@@H]1O` [TECADENOSON], the values for the pKi (on Adenosine receptor A2a [1]; in data set [2]) were 5.64 and 8.19, respectively.

Regarding `Clc1ccc(C#Cc2nc(NC3CCCC3)c3nc[nH]c3n2)s1`, the pKi at Adenosine receptor A1 is 5.95; on Adenosine receptor A2a [1] it was 5.87; in [3], 5.83; at Adenosine receptor A3 [5], 7.76. Besides, on Adenosine receptor A3 [4], the pEC50 was 6.56.

On to `CCNc1nc(C#Cc2ccc(Cl)s2)nc2[nH]cnc12`, for which the inhibition in [6] was determined as 32%. Also, the pKi is 5.29 at D(1A) dopamine receptor, 7.48 on Adenosine receptor A3 [5] and 5.94 in [8]. The compound further gave an inhibition at 10 µM at Adenosine receptor A2a [7] of 18%.

As to `C[C@@]12C[C@@H]1[C@@H](n1cnc3c(NCCc4ccccc4)nc(C#Cc4ccccc4)nc31)[C@H](O)[C@@H]2O`, the inhibition was found to be 30% in data set [6] and 39% in data set [11]. Besides, the pKi is 6.32 at Adenosine receptor A3 [9], 5.55 in [10], 7.70 on Adenosine receptor A3 [5] and 5.89 in [13]. For the same compound, the Ratio Ki in the data set listed under Homo sapiens amounted to 24. Besides, the inhibition at 10 µM at Adenosine receptor A2a [7] was determined as 22%; on Adenosine receptor A2a [12] it was 13%.
